Assay results taken from ChEMBL document CHEMBL4382244, “QSAR of 1,4-benzoxazin-3-one antimicrobials and their drug design perspectives” (2018).
Converted amounts (≈) assume the structure as drawn.

What was measured:
Type in all cases: functional
[1] = system: Candida albicans; experiment: Antifungal activity against Candida albicans after 24 hrs by disk diffusion method
[2] = system: Staphylococcus aureus; experiment: Antibacterial activity against Staphylococcus aureus ATCC 25923 after 24 hrs by disk diffusion method; conditions: ATCC 25923, 24 h
[3] = system: Escherichia coli; experiment: Antibacterial activity against Escherichia coli ATCC 25922 after 24 hrs by disk diffusion method; conditions: ATCC 25922, 24 h
[4] = system: Candida albicans; experiment: Antifungal activity against Candida albicans after 24 hrs by spectrophotometric method
[5] = system: Candida albicans; experiment: Antifungal activity against Candida albicans
[6] = system: Bacillus subtilis; experiment: Antibacterial activity against Bacillus subtilis
[7] = system: Staphylococcus aureus; experiment: Antibacterial activity against Staphylococcus aureus
[8] = system: Escherichia coli; experiment: Antibacterial activity against Escherichia coli
[9] = system: Pseudomonas aeruginosa; experiment: Antibacterial activity against Pseudomonas aeruginosa
[10] = system: Enterococcus faecalis; experiment: Antibacterial activity against Enterococcus faecalis ATCC 29212 after 16 to 20 hrs by microdilution method
[11] = system: Staphylococcus aureus; experiment: Antibacterial activity against Staphylococcus aureus ATCC 29213 after 16 to 20 hrs by microdilution method
[12] = system: Escherichia coli; experiment: Antibacterial activity against Escherichia coli ATCC 25922 after 16 to 20 hrs by microdilution method
[13] = system: Klebsiella pneumoniae; experiment: Antibacterial activity against Klebsiella pneumoniae RSKK 576 after 16 to 20 hrs by microdilution method
[14] = system: Pseudomonas aeruginosa; experiment: Antibacterial activity against Pseudomonas aeruginosa ATCC 10145 after 16 to 20 hrs by microdilution method
[15] = system: Pichia kudriavzevii; experiment: Antifungal activity against Candida krusei ATCC 6258 by micro-dilution method
[16] = system: Candida albicans; experiment: Antifungal activity against Candida albicans CA-6 by micro-dilution method
[17] = system: Saccharomyces cerevisiae; experiment: Antifungal activity against Saccharomyces cerevisiae ATCC 9763 by micro-dilution method

| MIC [1] [µM] | MIC [2] [µM] | MIC [4] [µM] | MIC [10] [µM] | MIC [11] [µM] | MIC [12] [µM] | MIC [13] [µM] | MIC [14] [µM] | SMILES | also measured |
| --- | --- | --- | --- | --- | --- | --- | --- | --- | --- |
| – | – | – | 457 (≈ 114 µg/mL) | 914 (≈ 228 µg/mL) | 457 (≈ 114 µg/mL) | 457 (≈ 114 µg/mL) | 457 (≈ 114 µg/mL) | CCOC(=O)CC1Oc2ccc(C)cc2NC1=O (stereo not given) | MIC [5]: 89.2 µM (≈ 22.2 µg/mL); MIC [6]: 89.2 µM (≈ 22.2 µg/mL); MIC [7]: 89.2 µM (≈ 22.2 µg/mL); MIC [8]: 89.2 µM (≈ 22.2 µg/mL); MIC [9]: 178 µM (≈ 44.5 µg/mL) |
| – | – | – | 457 (≈ 128 µg/mL) | 914 (≈ 256 µg/mL) | 457 (≈ 128 µg/mL) | 457 (≈ 128 µg/mL) | 457 (≈ 128 µg/mL) | CCOC(=O)CC1Oc2cccc([N+](=O)[O-])c2NC1=O (stereo not given) | – |
| – | – | – | 1030 (≈ 256 µg/mL) | 1030 (≈ 256 µg/mL) | 1030 (≈ 256 µg/mL) | 1030 (≈ 256 µg/mL) | 1030 (≈ 256 µg/mL) | CCOC(=O)CC1Oc2cccc(C)c2NC1=O (stereo not given) | – |
| – | – | – | 1030 (≈ 257 µg/mL) | 1030 (≈ 257 µg/mL) | 1030 (≈ 257 µg/mL) | 1030 (≈ 257 µg/mL) | 1030 (≈ 257 µg/mL) | CCOC(=O)CC1Oc2cc(N)ccc2NC1=O (stereo not given) | MIC [5]: 100 µM (≈ 25.1 µg/mL); MIC [6]: 201 µM (≈ 50.2 µg/mL); MIC [7]: 201 µM (≈ 50.2 µg/mL); MIC [8]: 201 µM (≈ 50.2 µg/mL); MIC [9]: 201 µM (≈ 50.2 µg/mL) |
| – | – | – | 1090 (≈ 225 µg/mL) | 1090 (≈ 225 µg/mL) | 1090 (≈ 225 µg/mL) | 1090 (≈ 225 µg/mL) | 544 (≈ 113 µg/mL) | O=C(O)CC1Oc2ccccc2NC1=O (stereo not given) | MIC [5]: 106 µM (≈ 22 µg/mL); MIC [6]: 212 µM (≈ 44 µg/mL); MIC [7]: 106 µM (≈ 22 µg/mL); MIC [8]: 212 µM (≈ 44 µg/mL); MIC [9]: 212 µM (≈ 44 µg/mL) |
| – | – | – | 949 to 1030 (≈ 256 to 277 µg/mL) | 949 to 1030 (≈ 256 to 277 µg/mL) | 949 to 1030 (≈ 256 to 277 µg/mL) | 949 to 1030 (≈ 256 to 277 µg/mL) | 949 to 1030 (≈ 256 to 277 µg/mL) | CCOC(=O)CC1Oc2ccc(Cl)cc2NC1=O (stereo not given) | MIC [5]: 100 µM (≈ 27 µg/mL); MIC [6]: 201 µM (≈ 54.1 µg/mL); MIC [7]: 201 µM (≈ 54.1 µg/mL); MIC [8]: 100 µM (≈ 27 µg/mL); MIC [9]: 100 µM (≈ 27 µg/mL) |
| – | – | – | 407 (≈ 125 µg/mL) | 814 (≈ 250 µg/mL) | 407 (≈ 125 µg/mL) | 407 (≈ 125 µg/mL) | 407 (≈ 125 µg/mL) | CCOC(=O)CC1Oc2ccc(C(=O)OCC)cc2NC1=O (stereo not given) | MIC [5]: 39.7 µM (≈ 12.2 µg/mL); MIC [6]: 79.4 µM (≈ 24.4 µg/mL); MIC [7]: 159 µM (≈ 48.8 µg/mL); MIC [8]: 79.4 µM (≈ 24.4 µg/mL); MIC [9]: 159 µM (≈ 48.8 µg/mL) |
| – | – | – | 1010 (≈ 256 µg/mL) | 1010 (≈ 256 µg/mL) | 1010 (≈ 256 µg/mL) | 1010 (≈ 256 µg/mL) | 1010 (≈ 256 µg/mL) | CCOC(=O)CC1Oc2ccc(F)cc2NC1=O (stereo not given) | – |
| – | – | 4480 (≈ 1000 µg/mL) | – | – | – | – | – | COC(=O)c1ccc2c(c1)OC(O)C(=O)N2 (stereo not given) | – |
| – | – | – | 206 (≈ 64 µg/mL) | 411 (≈ 128 µg/mL) | 411 (≈ 128 µg/mL) | 411 (≈ 128 µg/mL) | 411 (≈ 128 µg/mL) | CCOC(=O)CC1Oc2ccc(-c3ccccc3)cc2NC1=O (stereo not given) | – |
| – | – | – | 391 (≈ 128 µg/mL) | 782 (≈ 256 µg/mL) | 391 (≈ 128 µg/mL) | 391 (≈ 128 µg/mL) | 391 (≈ 128 µg/mL) | CCOC(=O)CC1Oc2ccc(S(=O)(=O)CC)cc2NC1=O (stereo not given) | – |
| – | – | – | 949 (≈ 279 µg/mL) | 949 (≈ 279 µg/mL) | 949 (≈ 279 µg/mL) | 949 (≈ 279 µg/mL) | 949 (≈ 279 µg/mL) | CCOC(=O)CC1Oc2cc([N+](=O)[O-])ccc2N(C)C1=O (stereo not given) | MIC [5]: 46.4 µM (≈ 13.7 µg/mL); MIC [6]: 185 µM (≈ 54.6 µg/mL); MIC [7]: 185 µM (≈ 54.6 µg/mL); MIC [8]: 92.7 µM (≈ 27.3 µg/mL); MIC [9]: 92.7 µM (≈ 27.3 µg/mL) |
| – | – | – | 457 (≈ 128 µg/mL) | 914 (≈ 256 µg/mL) | 457 (≈ 128 µg/mL) | 457 (≈ 128 µg/mL) | 457 (≈ 128 µg/mL) | CCOC(=O)CC1Oc2ccc([N+](=O)[O-])cc2NC1=O (stereo not given) | – |

The next lines start with the molecule.

| SMILES | MIC [1] [µM] | MIC [2] [µM] | MIC [4] [µM] | MIC [10] [µM] | MIC [11] [µM] | MIC [12] [µM] | MIC [13] [µM] | MIC [14] [µM] | also measured |
| --- | --- | --- | --- | --- | --- | --- | --- | --- | --- |
| O=C1COc2ccccc2N1O | 2020 (≈ 333 µg/mL) | 2020 (≈ 333 µg/mL) | 2120 (≈ 350 µg/mL) | – | – | – | – | – | MIC [3]: 7570 µM (≈ 1250 µg/mL) |
| COc1ccc2c(c1)OC(O)C(=O)N2O (stereo not given) | 2370 (≈ 500 µg/mL) | 1580 (≈ 333 µg/mL) | 2370 (≈ 500 µg/mL) | – | – | – | – | – | MIC [3]: 3150 µM (≈ 666 µg/mL) |
| COc1ccc2c(c1)OCC(=O)N2O | 850 (≈ 166 µg/mL) | 3410 (≈ 666 µg/mL) | 768 (≈ 150 µg/mL) | – | – | – | – | – | MIC [3]: 6400 µM (≈ 1250 µg/mL) |
| COC1Oc2ccccc2N(O)C1=O (stereo not given) | 3410 (≈ 666 µg/mL) | 2560 (≈ 500 µg/mL) | 3330 (≈ 650 µg/mL) | – | – | – | – | – | – |
| N#Cc1ccc2c(c1)OC(O)C(=O)N2O (stereo not given) | 7280 (≈ 1500 µg/mL) | 7280 (≈ 1500 µg/mL) | – | – | – | – | – | – | – |
| CCOC(=O)CC1Oc2cc([N+](=O)[O-])ccc2NC1=O (stereo not given) | – | – | – | – | – | – | – | – | MIC [5]: 121 µM (≈ 33.8 µg/mL); MIC [6]: 241 µM (≈ 67.6 µg/mL); MIC [7]: 121 µM (≈ 33.8 µg/mL); MIC [8]: 241 µM (≈ 67.6 µg/mL); MIC [9]: 121 µM (≈ 33.8 µg/mL) |
| CCOC(=O)CC1Oc2ccc(C(O)Cn3ccnc3)cc2N(C)C1=O (stereo not given) | – | – | – | – | – | – | – | – | MIC [15]: 39.2 µM (≈ 14.1 µg/mL); MIC [16]: 39.2 µM (≈ 14.1 µg/mL); MIC [17]: 19.6 µM (≈ 7.04 µg/mL) |
| CCOC(=O)CC1Oc2cc(C)ccc2NC1=O (stereo not given) | – | – | – | – | – | – | – | – | MIC [6]: 303 µM (≈ 75.5 µg/mL); MIC [7]: 303 µM (≈ 75.5 µg/mL); MIC [8]: 151 µM (≈ 37.7 µg/mL); MIC [9]: 151 µM (≈ 37.7 µg/mL) |
| COc1ccc2c(c1)OC(O)C(=O)N2 (stereo not given) | – | – | 5120 (≈ 1000 µg/mL) | – | – | – | – | – | – |
| Cc1ccc2c(c1)OCC(=O)N2O | 1860 (≈ 333 µg/mL) | 1860 (≈ 333 µg/mL) | 1950 (≈ 350 µg/mL) | – | – | – | – | – | MIC [3]: 2790 µM (≈ 500 µg/mL) |
| Cc1ccc2c(c1)OC(O)C(=O)N2O (stereo not given) | 3410 (≈ 666 µg/mL) | 2560 (≈ 500 µg/mL) | – | – | – | – | – | – | MIC [3]: 3410 µM (≈ 666 µg/mL) |
| O=C1C(O)Oc2cc([N+](=O)[O-])ccc2N1O (stereo not given) | 6630 (≈ 1500 µg/mL) | 734 (≈ 166 µg/mL) | – | – | – | – | – | – | MIC [3]: 3680 µM (≈ 833 µg/mL) |
| CC(=O)ON1C(=O)C(O)Oc2ccccc21 (stereo not given) | – | – | 2980 (≈ 666 µg/mL) | – | – | – | – | – | – |
| CCOC(=O)CC1Oc2ccc(C(Cn3ccnc3)OCc3ccc(Cl)cc3)cc2N(C)C1=O (stereo not given) | – | – | – | – | – | – | – | – | MIC [15]: 114 µM (≈ 55.3 µg/mL); MIC [16]: 915 µM (≈ 443 µg/mL); MIC [17]: 915 µM (≈ 443 µg/mL) |
| O=C1COc2ccccc2N1 | – | – | 6700 (≈ 1000 µg/mL) | – | – | – | – | – | – |
| O=C1C(O)Oc2ccccc2N1O (stereo not given) | 3680 (≈ 666 µg/mL) | 2760 (≈ 500 µg/mL) | 3680 (≈ 666 µg/mL) | – | – | – | – | – | MIC [3]: 6900 µM (≈ 1250 µg/mL) |
| O=C1COc2cc(F)ccc2N1O [7-F-D-DIBOA] | 2730 (≈ 500 µg/mL) | 1820 (≈ 333 µg/mL) | 2730 (≈ 500 µg/mL) | – | – | – | – | – | MIC [3]: 4550 µM (≈ 833 µg/mL) |
| COC(=O)c1ccc2c(c1)OCC(=O)N2O [7-MeOCO-D-DIBOA] | – | 4480 (≈ 1000 µg/mL) | – | – | – | – | – | – | – |
